From patent publication US10945994B2, “Combinations comprising a pyrrolidine-2,5-dione IDO1 inhibitor and an anti-body” (Pfizer Inc., priority 2015, dated 2021)
Read-outs that look alike come from different tables or passages of the source.

Assays:
4T1 breast cancer cells = assay: In vivo efficacy in 4T1 breast cancer syngeneic model; design: species or system Balb/c mice; conditions: 100 mg/kg BID oral
Protocol: In vivo efficacy studies were performed on 4T1 syngeneic tumor model of Balb/c mice implanted orthotopically in the mammary gland. One hundred thousand 4T1 breast cancer cells (ATCC® CRL-2539™)] were implanted orthotopically within the mammary gland of 7 weeks old Balb/c mice (day 0). Animals were randomized based on tumor size when tumor average reached 60 mm^3 (between day 7 and 11) into different treatment cohorts. The test compound was administered orally twice per day (approximately at 9 am and […]) starting the day of randomization. The test compounds were suspended into Methocel™ cellulose ether vehicle and sonicated before oral administration to animals using gavage needles. Treatment was administered daily until the end of the study. All experimental animals were monitored for body weight changes twice weekly. Tumor volume was measured twice a week by a caliper device and calculated with the following formula: Tumor volume=0.5×(length×width^2). Studies were terminated before tumor volumes reached […]. TGI (% tumor growth inhibition) was determined as […]

[1] = tested on: PancO2 pancreas cancer cells; assay: In vivo efficacy in PancO2 pancreatic cancer syngeneic model; design: species or system C57/Bl6 mice; conditions: 200 mg/kg BID oral
Protocol: In vivo efficacy studies were performed on PancO2 syngeneic tumor model of C57/Bl6 mice implanted sub-cutaneously. Five millions PancO2 pancreas cancer cells were implanted sub-cutaneously to 7 weeks old C57/Bl6 mice (day 0). Animals were randomized based on tumor size when tumor average reached 60 mm^3 (between day 10 and 12) into different treatment cohorts. The Compound was administered orally twice per day (approximately at 9 am and 5 pm) starting the day of randomization. The test compound shown below in the table was suspended into Methocel® vehicle and sonicated before oral administration to animals using gavage needles. Treatment was administered daily until the end of the study. All experimental animals were monitored for body weight changes weekly. Tumor volume was measured weekly using a caliper device and calculated with the following formula: Tumor volume=0.5×(length×width^2). Studies were terminated before tumor volumes reached […]. TGI (% tumor growth inhibition) was determined as
Treatment was administered daily until the end of the study. Tumor volume was measured weekly using a caliper device and calculated with the following formula: Tumor volume=0.5×(length×width^2). Mice were considered as dead when tumor size reached 400 mm^3. […] SEM refers to standard error of measurement.

[2] = Passive permeability in RRCK cells; type: in vitro ADME, canine; conditions: dog, MDCK, read-out: intrinsic permeability, apical to basolateral (A to B)
Protocol: In vitro Absorption: passive permeability was evaluated in Ralph-Russ canine kidney (RRCK) cells; high intrinsic permeability with an apical to basolateral (A to B) value of 25.5×10^−6 cm/sec. CNS Penetration: CNS distribution was investigated in male rats.

mouse TDO2 = mouse TDO2 (Mus musculus (Mouse), UniProt P48776); assay: TDO2 activity assay in P815 mouseTDO2 clone 12 cells; type: cell-based
mouse TDO2, sequence (P48776 whole entry): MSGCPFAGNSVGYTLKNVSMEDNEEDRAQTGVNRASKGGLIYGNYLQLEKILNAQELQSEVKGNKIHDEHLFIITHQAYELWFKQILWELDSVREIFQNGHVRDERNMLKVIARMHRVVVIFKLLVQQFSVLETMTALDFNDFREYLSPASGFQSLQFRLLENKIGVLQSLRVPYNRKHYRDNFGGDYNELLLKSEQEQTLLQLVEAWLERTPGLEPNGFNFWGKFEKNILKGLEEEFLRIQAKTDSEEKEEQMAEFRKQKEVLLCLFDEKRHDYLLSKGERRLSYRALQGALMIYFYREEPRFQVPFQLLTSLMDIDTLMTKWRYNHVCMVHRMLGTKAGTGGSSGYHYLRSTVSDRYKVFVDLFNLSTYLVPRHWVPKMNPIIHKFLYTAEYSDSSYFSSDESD
Protocol: P815 mTDO2 c112 cells were generated as described in Pilotte et al, Proc Natl Acad Sci, 109(7): 2497-2502 (2012). They were seeded in 96-well plates (50,000 cells/well), treated with increasing concentrations of compounds and incubated for 16-18 h. Kynurenine concentrations were determined as described above. The reaction was run with single replicate.

B16-F10 cells = assay: B16-F10 melanoma model, combination with anti-PD-L1 and anti-4-1BB; type: in vivo, C57BL/6J mice; conditions: PF-06840003 600 mg/kg BID, anti-4-1BB 1 mg/kg, anti-PD-L1 10 mg/kg d9, 12, 15, 18
Protocol: B16-F10 cells were obtained from the ATCC and grown following instructions on ATCC's website. 2×10^5 cells were implanted in […] PBS sc in the right flank of female C57BL/6J (Jackson labs) mice. Mice (n=20) were randomized into treatment groups and treatment initiated on day 9 after implant at a mean tumor size of 60 mm3. Antibody treatments were given as i.p. injection on day 9, 12, 15 and 18. anti-PD-L1 antibody (clone 10F.9G2; rat IgG2b) was purchased from BioxCell. anti-4-1BB antibody (MAB9371; rat IgG1—murinized) was purchased from R&D systems. […] All animal experimentation was approved in advance by and executed following Pfizer's IACUC.

CT26 tumors = assay: CT26 syngeneic colon tumor model, combination with avelumab; type: in vivo, Balb/c mice; conditions: for % TGI (D15) / % TGI (D17) / % TGI (D20): Compound 1 200 mg/kg BID, Avelumab 10 mg/kg
Excerpt: FIGS. 5A-5E show combinatorial anti-tumor effects of an IDO1 inhibitor and an anti-PD-L1 (avelumab) in the sc CT26 syngeneic mouse colon tumor model in Balb/c mice. […] FIGS. 5B-5E show the individual tumor growth curves.
Avelumab is a fully human anti-PD-L1 IgG1 monoclonal antibody, and thus, is not optimized for mouse.

IDO1 [3] = molecular target: T1, IDO1 (Homo sapiens (Human), UniProt P14902); assay: Human whole blood assay (+ IFNγ/LPS); type: cell-based; conditions: read-out: unbound IC90, human whole blood
T1 sequence (P14902 whole entry): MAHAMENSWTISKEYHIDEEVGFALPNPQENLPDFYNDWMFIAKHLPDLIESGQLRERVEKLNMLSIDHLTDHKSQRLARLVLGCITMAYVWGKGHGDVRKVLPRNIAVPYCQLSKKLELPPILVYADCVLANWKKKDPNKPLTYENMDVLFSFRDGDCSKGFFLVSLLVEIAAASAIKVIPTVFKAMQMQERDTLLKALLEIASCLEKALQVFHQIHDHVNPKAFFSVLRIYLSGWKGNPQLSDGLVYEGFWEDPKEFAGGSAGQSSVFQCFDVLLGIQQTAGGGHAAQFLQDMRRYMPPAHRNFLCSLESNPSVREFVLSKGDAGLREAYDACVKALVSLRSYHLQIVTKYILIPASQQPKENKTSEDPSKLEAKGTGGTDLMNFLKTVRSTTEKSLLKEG
Protocol: Human whole blood was collected in sodium heparin and gently mixed. Then 25 mg/mL LPS (Sigma) and 100 ng/mL. IFNg (R&D) was added and transferred immediately to a 96-well U bottom plate, 200 mL per well. […] The final DMSO concentration was 0.5%. Following overnight incubation at 37° C., a 30 mL aliquot was precipitated with 270 mL acetonitrile/HPLC water (70:30), vortexed vigorously, and centrifuged at 3220×g for 15 minutes at 10° C. An aliquot of the supernatant organic solution was diluted in 0.1% Formic acid and spiked with stable labeled isotopes of kynurenine and tryptophan as internal standards prior to analysis. Kynurenine inhibition was determined by dividing the drug treated internal standard adjusted kynurenine counts by the positive control internal standard adjusted value. The no drug treated sample containing DMSO was used as the positive control. […] The IC50 and IC90 calculations were conducted in GraphPad Prism version 6.03.
In order to determine compound potency in a human cellular system, human whole blood was collected from 9 subjects. […] The unbound inhibitor IC50 and IC90 values were computed by applying a conversion for the unbound fraction value in whole blood, 0.419.

TDO2 [4] = molecular target: T2, TDO2 (Homo sapiens (Human), UniProt P48775); assay: Human TDO2 enzymatic assay; type: biochemical
T2 sequence (P48775 whole entry): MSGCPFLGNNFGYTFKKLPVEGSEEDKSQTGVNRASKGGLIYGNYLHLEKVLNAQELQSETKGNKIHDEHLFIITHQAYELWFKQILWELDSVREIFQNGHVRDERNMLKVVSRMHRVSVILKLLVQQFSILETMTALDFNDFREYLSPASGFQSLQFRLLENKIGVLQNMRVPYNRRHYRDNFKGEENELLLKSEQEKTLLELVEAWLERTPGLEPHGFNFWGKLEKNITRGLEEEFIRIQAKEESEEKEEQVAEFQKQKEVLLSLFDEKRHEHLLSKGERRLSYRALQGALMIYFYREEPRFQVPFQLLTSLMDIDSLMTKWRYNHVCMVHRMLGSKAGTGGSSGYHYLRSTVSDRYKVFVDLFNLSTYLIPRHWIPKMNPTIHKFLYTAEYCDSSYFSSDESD
Protocol: The protocol was adapted from Dolusic et al, 2011. Briefly, the reaction mixture ([…]) contained TRIS buffer (50 mM, pH 7.5), methylene blue (0.125 mM), ascorbic acid (0.25 M), catalase (40 units/mL) and human recombinant TDO2 enzyme (prepared as described in Dolusic et al, 2011; 0.9 mg) with increasing concentrations of compounds (1.0 nM to […]). The reaction was run with single replicate. The reaction was initiated by the addition of the substrate L-tryptophan (1 mM).

IDO1 [5] = molecular target: T1, IDO1; assay: IDO1 enzymatic activity by mass spectrometry assay; type: biochemical; conditions: human enzyme; varied tryptophan and inhibitor concentrations
Protocol: (§1) The full length complementary deoxyribonucleic acid (cDNA) for human IDO1 was cloned into a pFastbac-1 based vector and the full length cDNA for mouse and dog was cloned into a pET24a based vector. […] Human IDO1 was expressed in insect cells and purified using Ni affinity column. The mouse and dog IDO1 were expressed in Escherichia coli BL21 (DE3) and purified using a Ni affinity column. To obtain non-tagged, pure, and hemin loaded IDO1, TEV protease treated and tag removed protein was incubated with 10× molar ratio of hemin (dissolved in 25 mM NaOH) to protein at 4° C. overnight followed by size exclusion chromatography (SEC) for human IDO1 and anion exchange and SEC for mouse and dog IDO1.
The inhibition of human, dog and mouse IDO1 was measured by quantitating tryptophan and the generation of kynurenine by MS. […] The HCl stops the enzyme reactions and also converts the N-formyl kynurenine to kynurenine. […] Detection of tryptophan and kynurenine was accomplished following injection of assay reaction (injection loop volume is 10 μL) onto an Agilent Graphite Type D cartridge in 0.01% trifluoroacetic acid (TFA) plus 0.09% formic acid and eluted using 80% acetonitrile, 0.09% formic acid and 0.01% TFA. […]

[6] = tested on: panel of receptors, ion channels, transporters and enzymes (64 targets in total); assay: Cerep Wide Ligand Profile Screen; conditions: initial concentration of 200 μM
Protocol: Three hits were noted (defined by a response greater that 50% of a maximal response) and follow up curves were performed by Cerep.

dog IDO1 = dog IDO1 (Canis lupus familiaris, UniProt A0A8I3N1Y1); assay: IDO1 enzymatic activity by mass spectrometry assay; type: biochemical; conditions: dog enzyme; varied tryptophan and inhibitor concentrations
dog IDO1, sequence (A0A8I3N1Y1 1-402): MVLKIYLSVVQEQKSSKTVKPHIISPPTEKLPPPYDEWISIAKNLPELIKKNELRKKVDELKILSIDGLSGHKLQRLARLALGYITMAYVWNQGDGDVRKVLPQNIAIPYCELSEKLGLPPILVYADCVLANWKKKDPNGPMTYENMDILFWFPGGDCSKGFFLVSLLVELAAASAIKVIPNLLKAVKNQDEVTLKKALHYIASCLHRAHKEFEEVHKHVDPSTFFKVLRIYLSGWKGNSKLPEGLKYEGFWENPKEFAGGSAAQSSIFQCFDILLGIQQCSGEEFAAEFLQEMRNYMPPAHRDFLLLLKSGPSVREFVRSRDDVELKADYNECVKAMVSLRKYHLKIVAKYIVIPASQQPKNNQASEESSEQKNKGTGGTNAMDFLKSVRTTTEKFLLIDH
Protocol: as §1
(§2) The inhibition of human, dog and mouse IDO1 was measured by quantitating tryptophan and the generation of kynurenine by MS. IDO1 enzyme (1 nM) was incubated with various concentrations of the inhibitor ([…] to 1 nM), in duplicate, at room temperature in […] buffer (Mg2+, Ca2+−PBS, 20 mM ascorbic acid, 10 mM methylene blue, 800 nM catalase, […]). […] The HCl stops the enzyme reactions and also converts the N-formyl kynurenine to kynurenine. […] Detection of tryptophan and kynurenine was accomplished following injection of assay reaction (injection loop volume is 10 μL) onto an Agilent Graphite Type D cartridge in 0.01% trifluoroacetic acid (TFA) plus 0.09% formic acid and eluted using 80% acetonitrile, 0.09% formic acid and 0.01% TFA. The finalized RapidFire settings were as follows: aspiration time: 600 ms or until the loop is full per the sip sensor, load time: 5000 ms, elution time: 5000 ms, and re-equilibration time: 500 ms at a flow rate of 1.5 mL/min.

mouse IDO1 = mouse IDO1 (Mus musculus (Mouse), UniProt P28776); assay: IDO1 enzymatic activity by mass spectrometry assay; type: biochemical; conditions: MS assay; geometric mean (95% confidence interval); read-out: Enzyme Activity IC50 mouse IDO1
mouse IDO1, sequence (P28776 whole entry): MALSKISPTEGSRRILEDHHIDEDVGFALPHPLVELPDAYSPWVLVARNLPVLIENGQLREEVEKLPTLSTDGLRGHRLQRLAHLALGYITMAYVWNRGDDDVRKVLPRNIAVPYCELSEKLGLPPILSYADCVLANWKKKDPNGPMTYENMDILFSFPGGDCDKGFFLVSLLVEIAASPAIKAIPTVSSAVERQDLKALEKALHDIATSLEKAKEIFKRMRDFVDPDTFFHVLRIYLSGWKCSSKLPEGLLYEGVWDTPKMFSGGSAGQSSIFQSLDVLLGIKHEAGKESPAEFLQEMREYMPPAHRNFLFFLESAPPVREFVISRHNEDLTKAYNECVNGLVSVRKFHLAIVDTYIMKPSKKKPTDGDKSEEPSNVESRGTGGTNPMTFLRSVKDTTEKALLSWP
Protocol: as §1, §2

TDO2 [7] = molecular target: T2, TDO2; assay: TDO2 activity assay in A172 and THP-1 cells; type: cell-based; conditions: for A172 and THP-1 cells TDO2 inhibition: @50 μM; for inhibitory activity in any of the human or mouse TDO2 assays: human biochemical and cellular, murine cellular, concentrations of up to 50 μM
Protocol: A172 cells were seeded in 96-well plates (12500 cells/well), treated with increasing concentrations of compounds and incubated for 16-18 h at 37° C., 5% CO2. Then TCA was added to the supernatant to stop the reaction. […] Kynurenine concentrations were determined by measuring absorbance at 480 nm. The reaction was run with single replicate.
THP-1 cells were stimulated with 2 ng/ml PMA for 24 h, then seeded in 96-well plates (100,000 cells/well), treated with 2 ng/ml PMA and increasing concentrations of compounds, and incubated for 24 h. Kynurenine concentrations were determined as described above. The reaction was run with single replicate.

[8] = tested on: IDO1-expressing SKOV3 cells co-cultured with human PBMC; assay: T cell - SKOV3 co-culture assay with human serum (II.9); type: cell-based; conditions: SK-OV-3, read-out: T-cell proliferation in SKOV3 co-culture system (50% serum) IDO1 IC50 ± SD (n)
Protocol: Three different concentrations of human serum (10%, 25% or 50%) were used to mimic the consequences of protein binding in human. […] T cell proliferation was measured by incorporation of ^3H-thymidine after 48 h of co-culture. IC50 of T cell proliferation, tryptophan (Trp) decrease and kynurenine (Kyn) increase were determined. FIG. 7D illustrates Trp to Kyn conversion in 10% HS. […] FIG. 7F illustrates Trp to Kyn conversion in 50% HS. Tryptophan and kynurenine concentrations in supernatant were assessed using LC-MS/MS after 24 h of co-culture. […]
Human peripheral blood mononuclear cells were isolated from buffy coats, purified by density gradient centrifugation on Lymphoprep™ (StemCell), stimulated with CD3/CD28 beads (Invitrogen) and hIL-2 (Novartis) in IMDM with 10%, 25% or 50% of HS, for 15 min and then added to the SKOV3 plates. […] After an incubation of 24 h, the tryptophan and kynurenine concentrations in conditioned medium were assessed using LC-MS/MS. ^3H-thymidine was added to the co-cultures for another 24 h incubation period. Thymidine incorporation was measured using a TopCount counter (Perkin Elmer). Data were fitted and IC50 determined by using the Prism™ software (GraphPad software Inc.).

[9] = tested on: PancO2 pancreas cancer cells; assay: PancO2 syngeneic model survival, combination with anti-CTLA4 antibody; type: in vivo, C57/Bl6 mice; conditions: dead when tumor size reached 400 mm^3, anti-CTLA4 200 μg i.p., Compound 2 100 mg/kg BID
Protocol: In vivo efficacy studies of IDO1 inhibitor were performed on PancO2 syngeneic tumor model of C57/Bl6 mice implanted sub-cutaneously essentially as described in Example II.5. Five million PancO2 pancreas cancer cells were implanted sub-cutaneously to 7 weeks old C57/Bl6 mice (day 0). […] Anti-CTLA4 (Clone 9 h10, 200 μg/mouse, i.p. in PBS) was administered at day 11, 14 and 17. […] Treatment was administered daily until the end of the study. Tumor volume was measured weekly using a caliper device and calculated with the following formula: Tumor volume=0.5×(length×width^2). Mice were considered as dead when tumor size reached 400 mm^3.

O=C1CC(c2c[nH]c3ccc(F)cc23)C(=O)N1 (racemic) [Compound 1, 3-(5-fluoro-1H-indol-3-yl)pyrrolidine-2,5-dione]
Mean tumor volume on day 25 (4T1 breast cancer cells): 443.7 mm^3
TGI (Tumor growth inhibition) (4T1 breast cancer cells; day 25): 43.4%
Mean tumor volume on day 42 [1]: 457.0 mm^3
TGI (Tumor growth inhibition) ([1]; day 42): 26.2%
Papp A→B [2]: 25.5 ×10⁻⁶ cm/s
IC50 (mouse TDO2): > 50 µM
% TGI (D17) (B16-F10 cells): 32%
% TGI (D20) (B16-F10 cells): 49%
% TGI (D15) (CT26 tumors): 38%
% TGI (D17) (CT26 tumors): 41%
% TGI (D20) (CT26 tumors): 34%
IC90 (IDO1 [3]): 10.7 µM
IC50 (TDO2 [4]): > 50 µM
mechanism of inhibition, preferred model fit (IDO1 [5]): uncompetitive inhibition
hits (response greater than 50% of a maximal response) in off target panel [6]: Three
mechanism of inhibition, preferred model fit (dog IDO1): noncompetitive inhibition
IC50 (mouse IDO1): 1.5 µM
A172 and THP-1 cells TDO2 inhibition (TDO2 [7]): no inhibition
inhibitory activity in any of the human or mouse TDO2 assays (TDO2 [7]): did not display any significant inhibitory activity

O=C1C[C@H](c2c[nH]c3ccc(F)cc23)C(=O)N1 [Compound 2, (−)-(R)-3-(5-fluoro-1H-indol-3-yl)pyrrolidine-2,5-dione]
IC50 (mouse TDO2): > 50 µM
IC90 (IDO1 [3]; conversion with unbound fraction in whole blood 0.419): 5.69 µM
IC50 (TDO2 [4]): > 50 µM
IC50 [8]: 0.08 ± 0.05 µM
mechanism of inhibition, preferred model fit (IDO1 [5]): uncompetitive inhibition
% Survival at Day 55 [9]: 0%
mechanism of inhibition, preferred model fit (dog IDO1): noncompetitive inhibition
IC50 (mouse IDO1): 0.73 µM
A172 and THP-1 cells TDO2 inhibition (TDO2 [7]): no inhibition
inhibitory activity in any of the human or mouse TDO2 assays (TDO2 [7]): did not display any significant inhibitory activity

Avelumab: fully human anti-PD-L1 IgG1 monoclonal antibody
tumor growth inhibition (TGI), summary (CT26 tumors): about 50%
% TGI (D15) (CT26 tumors): 54%
% TGI (D17) (CT26 tumors): 59%
% TGI (D20) (CT26 tumors): 51%
